Experimental data reported in PMC7083851, “Extended pharmacodynamic responses observed upon PROTAC-mediated degradation of RIPK2” (Communications Biology, 2020).
Where “and” joins values, the source holds several entries; their conditions need not be identical. Equal values may be shown once. Read-outs that look alike come from different tables or passages of the source.

Tests used:
[1] = tested on: L18-MDP-induced TNFα release; experiment: L18-MDP-induced cytokine release (TNFα, IL1β, IL-6, IL-8, IL-10) in human PBMCs; format: cell-based; details: Homo sapiens, PBMC
Procedure: PBMCs were isolated from leukodepletion filter from platelet aphaeresis supplied by National Health System Blood and Transplant—NHSBT Apheresed at NHBST.
Before treatment with compound or vehicle, THP1 cells, human and rat PBMCs were counted using Vi-Cell cell counter (Invitrogen) and adjusted to a final cell density of […] using complete growth medium. Cells or whole blood were treated with vehicle (0.1% DMSO) or fixed concentrations of compound up to 1 μM in half log unit increments and incubated for the time period indicated in the figure.
Where the assessment of cytokines was performed, L18-MDP was added to the cell culture media (1 μg/ml) or to the rat blood samples (100 ng/ml) and samples were incubated for up to 4 h. […] Samples were them spun down at 1000 g and the cell culture supernatant, plasma or serum were collected for cytokines assessment, while cell pellets were used for RIPK2 and/or cIAP1, cIAP2, and XIAP levels analysis via immunoblotting.
Cytokine measurement assay: Cytokine levels were measured in rat plasma or rat PBMCs cell culture supernatants using rat V-Plex TNFα, in human plasma or human PBMCs cell culture supernatants with either TNFα tissue culture or 7-plex kit. Rat serum and tissues samples from the in vivo L18-MDP acute inflammation model were analyzed using the rat TNFα, Il-6 and IL-8 U-Plex kits. All kits provided by Meso Scale Discovery (MSD). Levels of cytokines spontaneously released from human colon biopsies cell culture supernatants were measured using Human IL-1 beta/IL-1F2 DuoSet ELISA (Bio-techne), Human IL-6 ELISA (Immunotools) and Human TNF-alpha DuoSet ELISA (Bio-techne). All samples were processed accordingly to the manufacturer’s instructions. The MSD plates were analyzed using the MSD sector imager 6000 plate reader and cytokines concentration (pg/ml) was obtained by using the MSD DISCOVERY WORKBENCH software version 4.0.12.1
In vitro experimental data were analyzed using a 4-parameter logistic equation in GraphPad Prism 5.0.4. to generate an estimate of the half-maximal concentration and maximal degradation, DC50 and Dmax value respectively, for concentration-degradation relationships. Cytokine levels were analyzed in a similar manner to yield IC50 and Imax values. […] Where analysis to a sigmoidal relationship was not possible, the data points are shown as mean ± s.e.m.

[2] = Blood concentrations after subcutaneous dosing in rat PK/PD studies; format: in vivo; details: rat, […] Q3D SC
Procedure: Female CD rats (7–8 weeks old on arrival, Charles River Ltd.) were placed into groups using a randomization schedule based on body weight prior to the study start. All animals were acclimatized for a minimum of one week prior to the experiment commencing. […] PROTAC 4 was dissolved in saline with the pH adjusted to 5.0 with sodium hydroxide (1 M).

RIPK2 = experiment: In vivo RIPK2 degradation in rat (PBMCs isolated from blood, Western blot); details: for RIPK2: fig 5e, individual rats 6-10, time 0 = 100; for RIPK2 (time 0 = 100): rats 1-4, fig 5c
Procedure: Rat PK/PD studies: On arrival, all rats were housed in a plastic solid bottom cage in groups of 2–3 with access to food and water ad libitum and under a 12 h light–dark cycle. Male CD or Wistar Han rats (7–9 weeks old, Charles River UK Ltd.) were randomly allocated to treatment groups upon arrival. Female CD rats (7–8 weeks old on arrival, Charles River Ltd.) were placed into groups using a randomization schedule based on body weight prior to the study start. All animals were acclimatized for a minimum of one week prior to the experiment commencing.
Subcutaneous PROTAC solution formulations were prepared on the day of dosing as outlined below and filtered through a 0.22 µm Millex PVDF filter (Millipore) prior to PROTAC administration. PROTAC 4 was dissolved in saline with the pH adjusted to 5.0 with sodium hydroxide (1 M). […].
Ex vivo stimulation of rat blood with L18-MDP for PD: PPD blood samples taken prior to PROTAC administration or at fixed timepoints post PROTAC administration through the course of the study, were treated ex vivo with 100 ng/mL L18-MDP (Invivogen) or vehicle (0.1% DMSO) and incubated for 4 h. Following centrifugation, plasma was collected for cytokines analysis as detailed in cytokines assay section. Additionally, RIPK2 levels were determined in PBMCs isolated from blood and where collected, in sampled colon tissue as described in the text.
Blood was mixed with optiPREP (Sigma) and following centrifugation at 1300 × g the PBMCs layer was collected. For in vivo studies, RIPK2 levels were determined immediately via immunoblotting, whereas for in vitro studies PBMCs were treated as detailed in the in vitro treatment section.
Statistics and reproducibility: All data were represented as percentage of the control sample: DMSO treated cells for the in vitro assays and the pre-dose or vehicle sample for the in vivo experiments.
For in vivo studies, RIPK2:tubulin ratios and cytokine levels from each individual experiment were analysed either using a One-way ANOVA with Dunnet’s post-test or a two way ANOVA using GraphPad Prism 5.0.4 to determine statistical significance with 95% confidence levels.

Work on `CN[C@@H](C)C(=O)N[C@H](C(=O)N1C[C@@H](NC(=O)c2cnc(N3CCN(CCCOc4cc5ncnc(Nc6n[nH]c(C)c6C)c5cc4S(=O)(=O)C(C)(C)C)CC3)cn2)C[C@H]1C(=O)Nc1c(F)cccc1F)C(C)(C)C` [PROTAC 6] yielded an IC50 ([1]; 6 h, read-out: hPBMC MDP pIC50 ± SEM, 6 h (n = 3) (converted)) of 0.501 nM, an IC50 ([1]; read-out: pIC50 IL1β release following L18-MDP-stimulation (converted)) of less than 1.58 nM and an IC50 ([1]; read-out: pIC50 IL-6 release following L18-MDP-stimulation (converted)) of less than 1.58 nM. For the same compound, the IC50 ([1]; read-out: pIC50 IL-10 release following L18-MDP-stimulation (converted)) was less than 1.58 nM, the IC50 ([1]; read-out: pIC50 TNFα release following L18-MDP-stimulation (converted)) was less than 1.58 nM and the “time drug levels were maintained above the LLQ after the first dose” value [2] was 24 h. The “RIPK2 level (time 0 = 100), unlabelled cell under rat 8” value (RIPK2; 0.005 mg/kg, equals the mean of the four other rats at 24 h, fig 5a) was 92.1904, the “RIPK2 level (time 0 = 100)” value (RIPK2; 0.005 mg/kg, time 24 h, rats 6-10, fig 5a) was 71.58 and 92.75 and 127.25 and 77.18 and the “RIPK2 level (time 0 = 100)” value (RIPK2; 0.005 mg/kg, time 48 h, rats 6-10, fig 5a) was 107.66 and 189.11 and 139.36 and 104.71 and 114.34. For the same compound, the “RIPK2 level (time 0 = 100)” value (RIPK2; 0.05 mg/kg, time 6 h, rats 11-15, fig 5a) was 60.71 and 118.09 and 89.04 and 78.70 and 85.87, the “RIPK2 level (time 0 = 100)” value (RIPK2; 0.05 mg/kg, time 24 h, rats 11-15, fig 5a) was 70.75 and 59.91 and 86.01 and 67.12 and 70.61 and the “RIPK2 level (time 0 = 100)” value (RIPK2; 0.5 mg/kg, time 72 h, rats 16-20, fig 5a) was 25.93 and 26.14 and 14.54 and 23.73 and 19.84. The RIPK2 (RIPK2; time 24 h) was 41.32 and 46.91 and 38.86 and 44.83 and 39.94, the RIPK2 (RIPK2; time 72 h) was 55.66 and 38.00 and 35.30 and 41.29 and 38.74 and the RIPK2 degradation (RIPK2; rat, 0.05 mg/kg/day QD SC, last time point) was greater than 70%. The RIPK2 degradation (RIPK2; rat, 0.5 mg/kg/day QD SC, 24 h) was ~ 70%, the RIPK2 degradation (RIPK2; rat, 0.5 mg/kg/day QD SC, last time point after third dose) was greater than 90% and the “effect on RIPK2 levels, in words” value (RIPK2; rat, single 0.005 mg/kg SC) was “no significant effect”. For the same compound, the “effect on RIPK2 protein levels, in words” value (RIPK2; rat, single 0.05 mg/kg SC) was “did not have a statistically significant effect”, the RIPK2 degradation (RIPK2; rat, single 0.5 mg/kg SC, 6 h post-dose) was 53 ± 9% and the RIPK2 degradation (RIPK2; rat, single 0.5 mg/kg SC, 48 h) was 78 ± 5%. For the same compound, the “RIPK2 (time 0 = 100)” value (RIPK2; time 6 h) was 85.25 and 86.14 and 86.72 and 88.07, the “RIPK2 (time 0 = 100)” value (RIPK2; time 24 h) was 71.45 and 57.80 and 52.77 and 57.74 and the “RIPK2 (time 0 = 100)” value (RIPK2; time 30 h) was 42.20 and 43.44 and 40.14 and 48.21. For the same compound, the “RIPK2 (time 0 = 100)” value (RIPK2; time 48 h) was 32.57 and 27.38 and 24.98 and 36.77 and the “RIPK2 (time 0 = 100)” value (RIPK2; time 54 h) was 24.47 and 24.71 and 23.45 and 32.20.
